Laboratory results reported in patent publication US20260138959A1, “QUINAZOLINE DERIVATIVE COMPOUND AND USE THEREOF” (VORONOI INC., priority 2021, published 2026).

Assays:
c-KIT D816V [1] = target: T1, c-KIT D816V (Homo sapiens, UniProt P10721, D816V); details: background art; cited from earlier work
Ba/F3-TEL-PDGFRα(WT) = experiment: Proliferation inhibitory activity on Ba/F3 cell (CellTiter-Glo, 72 hours), PDGFR-α; assay type: cell-based; details: Mus musculus, BaF3, read-out: Ba/F3 (nM) Tel-PDGFRα (GI50 class)
Summary of the method: (§1)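 Viability was read by CellTiter-Glo after 72 h compound exposure at 37 °C, and GI50 values (nM) were derived from percent of vehicle-treated growth. Ba/F3 cells transformed with TEL-PDGFRα/β or mutant c-KIT were plated at 3×10^3 per well. Final compound range was 0.00005-10 μM in 12 threefold steps.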

human c-KIT(wt) = target: T2, human c-KIT(wt) (Homo sapiens, UniProt P10721); experiment: Enzyme inhibitory activity, ADP-Glo kinase assay, c-KIT(wt); assay type: biochemical; details: read-out: c-KIT (WT) (IC50 class)
T2 construct: purchased Signalchem K06-11BG
Method: (§2) In order to evaluate the inhibitory activity of the compounds synthesized according to the above examples on PDGFR-α(wt), PDGFR-β(wt), c-KIT(wt), and c-KIT(D816V) kinases, the following method was performed. The compounds of examples were reacted with purified human PDGFR-α(wt) (Signalchem #P12-18G) enzyme, human PDGFR-β(wt) (Signalchem #P13-11G) enzyme, human c-KIT(wt) (Signalchem #K06-11BG) enzyme, human c-KIT(D816V) (Signalchem #C06-12LG) enzyme, and the enzyme inhibitory abilities were evaluated by the following method.
(§3) The reaction buffer was used as a composition of 40 mM Tris-HCl pH7.4, 20 mM MgCl2, 0.5 mg/ml BSA, 50 μM DTT, and the reactions of all the tests were carried out on the reaction buffer. The compound was diluted in 12 steps using a serial dilution method from a 10 mM DMSO stock, and the enzyme activity was measured at a final compound concentration of 10˜0.00005645 μM. During the test, the enzyme activity was confirmed using in vitro ADP-Glo™ kinase assay (Promega) after reacting with the proper concentration of human PDGFR-α(wt) enzyme, human PDGFR-β(wt), human c-KIT(wt) enzyme, and human c-KIT(D816V) enzyme with purified ATP and enzyme substrate at 25° C. for 1˜2 hours. At a ratio of 2:2:1, an enzyme-active reaction solution, an ADP-Glo reaction solution, and an enzyme-active detection solution were reacted to measure the inhibition of the enzyme's activity with luminoscence. Based on the […] of the enzyme activity of the solvent control that was not treated with the compound, the degree of enzyme activity inhibition was calculated according to the treatment concentration of each compound, and the concentration of each compound that inhibits 50% of enzyme activity was determined as IC50 (nM) value and the value was obtained by using GraphPad Prism 8.3.0 (GraphPad software Inc., San Diego) software. (A: IC50≤50 nM; B: 50 nM<IC50≤100 nM; C: 100 nM<IC50≤500 nM; D: IC50>500 nM).

c-KIT D816V [2] = target: T1, c-KIT D816V; experiment: Enzyme inhibitory activity, ADP-Glo kinase assay, c-KIT(D816V); assay type: biochemical; set-up: purchased Signalchem C06-12LG; details: read-out: c-KIT (D816V) (IC50 class)
Method: as §2, §3

human PDGFR-α(wt) = target: T3, human PDGFR-α(wt) (Homo sapiens, UniProt P16234); experiment: Enzyme inhibitory activity, ADP-Glo kinase assay, PDGFR-α(wt); assay type: biochemical; details: read-out: PDGFR-α (IC50 class)
T3 construct: purchased Signalchem P12-18G
Summary of the method: (§4)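 Purified human kinases incubated with ATP and substrate 1–2 h at 25 °C in 40 mM Tris-HCl pH 7.4, 20 mM MgCl2, BSA, DTT, compound over 12 concentrations (10–0.00005645 μM final). ADP formed quantified by ADP-Glo luminescence; IC50 from inhibition versus DMSO control, reported in bins A–D.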

Ba/F3-TEL-PDGFβ(WT) = experiment: Proliferation inhibitory activity on Ba/F3 cell (CellTiter-Glo, 72 hours), PDGFR-β; assay type: cell-based; details: Mus musculus, BaF3, read-out: Ba/F3 (nM) Tel-PDGFRβ (GI50 class)
Summary of the method: as §1

various kinases = experiment: Inhibitory activity against various kinases, DiscoverX scanMAX Kinase panel, % control at 1 μM; assay type: binding
Method: The activities of the compounds according to the present disclosure on various enzymes were evaluated. Specifically, it was commissioned DiscoverX to measure enzyme selectivity for the compounds of Examples 3, 9, and 83 above, and the experiment was conducted using a panel for scanMAX™ Kinase analysis. Herein, a solution prepared by dissolving in DMSO at a concentration of 1 μM was used as the drug treated with the enzyme, and the control percentage (% control) was determined by the method of Equation 1 below, and the results are shown in Table 8 below.
Herein, when the calculated percentage value for each enzyme was less than 35%, it was determined to have inhibitory activity for the enzyme. Accordingly, among the series of enzymes tested, the enzymes showing the inhibitory activities of the compounds of the present disclosure are summarized and shown in Table 8 below along with the control percentages thereof. (©): less than 10%; ◯: 10% or more to less than 35%).

c-KIT V560G/D816V = experiment: Proliferation inhibitory activity on Ba/F3 cell (CellTiter-Glo, 72 hours), c-KIT V560G/D816V; assay type: cell-based; details: Mus musculus, BaF3, c-KIT V560G/D816V cells, read-out: Cell (nM) c-KIT V560G/D816V (GI50 class)
Summary of the method: as §1

human PDGFR-β(wt) = target: T4, human PDGFR-β(wt) (Homo sapiens, UniProt P09619); experiment: Enzyme inhibitory activity, ADP-Glo kinase assay, PDGFR-β(wt); assay type: biochemical; details: read-out: PDGFR-β (IC50 class)
T4 construct: purchased Signalchem P13-11G
Summary of the method: as §4

c-KIT D814Y = experiment: Proliferation inhibitory activity on Ba/F3 cell (CellTiter-Glo, 72 hours), c-KIT D814Y; assay type: cell-based; details: Mus musculus, BaF3, c-KIT D814Y cells, read-out: Cell (nM) c-KIT D814Y (GI50 class)
Method: Ba/F3-TEL-PDGFRα(WT), Ba/F3-TEL-PDGFβ(WT), Ba/F3-c-KIT(D816V) (Kyinno, #KC-0138), c-KIT V560G/D816V, c-KIT D814Y were seeded at 3×10^3/100 μl/well in a clear bottom white 96-well plate. A culture solution containing compounds of 12 concentrations (0.00001-2 mM) serially diluted in 3 folds and the DMSO control group was added at 0.5 μl/well each to a final concentration of 0.00005-10 μM, and then incubated in a CO2 incubator at 37° C. for 72 hours. After 72 hours, the plate treated with the compound was taken out, CellTiter-Glo® Assay (Promega) solution was treated with 100 μl/well, followed by mixing well. After mixing well for about 10 minutes at room temperature, […] was measured using a microplate reader. The data were presented as percentages in proportion to treated cells based on the vehicle, GI50 (nM) values were calculated using GraphPad Prism 8.3.0 (GraphPad software Inc., San Diego).
The inhibitory activities of Ba/F3 expressing PDGFR-α, PDGFR-β, c-KIT(D816V), c-KIT V560G/D816V, and c-KIT D814Y measured as described above were measured and shown in Table 7 below (A: GI50≤200 nM; B: 200 nM<GI50≤500 nM; C: GI50>500 nM).

Ba/F3-c-KIT(D816V) = experiment: Proliferation inhibitory activity on Ba/F3 cell (CellTiter-Glo, 72 hours), c-KIT(D816V); assay type: cell-based; details: Mus musculus, BaF3, read-out: Ba/F3 (nM) c-KIT (D816V) (GI50 class)
Summary of the method: as §1

T1 sequence (P10721 26-976 D816V): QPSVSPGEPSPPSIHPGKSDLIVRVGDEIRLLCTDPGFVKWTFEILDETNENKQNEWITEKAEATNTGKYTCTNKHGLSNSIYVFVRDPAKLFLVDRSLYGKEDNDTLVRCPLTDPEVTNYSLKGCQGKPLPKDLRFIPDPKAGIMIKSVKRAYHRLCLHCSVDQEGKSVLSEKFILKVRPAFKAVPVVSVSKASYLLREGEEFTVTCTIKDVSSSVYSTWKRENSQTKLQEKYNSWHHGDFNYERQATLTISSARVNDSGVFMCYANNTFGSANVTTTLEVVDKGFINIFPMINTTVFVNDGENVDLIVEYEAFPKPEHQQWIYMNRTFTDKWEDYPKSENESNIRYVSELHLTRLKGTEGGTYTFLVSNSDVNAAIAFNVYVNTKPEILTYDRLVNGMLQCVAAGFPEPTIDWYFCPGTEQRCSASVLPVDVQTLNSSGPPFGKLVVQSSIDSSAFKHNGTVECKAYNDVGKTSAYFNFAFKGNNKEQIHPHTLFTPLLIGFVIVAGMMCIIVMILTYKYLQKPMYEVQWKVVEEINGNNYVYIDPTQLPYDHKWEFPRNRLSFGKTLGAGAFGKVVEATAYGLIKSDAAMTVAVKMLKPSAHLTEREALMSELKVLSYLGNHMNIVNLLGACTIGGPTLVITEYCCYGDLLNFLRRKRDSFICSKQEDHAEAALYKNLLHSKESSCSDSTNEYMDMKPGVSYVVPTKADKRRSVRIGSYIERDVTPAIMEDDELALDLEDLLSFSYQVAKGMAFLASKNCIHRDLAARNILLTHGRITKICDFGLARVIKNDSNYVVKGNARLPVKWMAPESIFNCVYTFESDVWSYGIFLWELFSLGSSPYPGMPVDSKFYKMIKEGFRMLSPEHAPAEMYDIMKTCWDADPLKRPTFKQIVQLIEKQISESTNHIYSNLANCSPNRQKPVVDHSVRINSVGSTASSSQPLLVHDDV
T2 sequence (P10721 26-976): as the sequence (P10721 26-976 D816V) above, with V791D counted along it
T4 sequence (P09619 33-1106): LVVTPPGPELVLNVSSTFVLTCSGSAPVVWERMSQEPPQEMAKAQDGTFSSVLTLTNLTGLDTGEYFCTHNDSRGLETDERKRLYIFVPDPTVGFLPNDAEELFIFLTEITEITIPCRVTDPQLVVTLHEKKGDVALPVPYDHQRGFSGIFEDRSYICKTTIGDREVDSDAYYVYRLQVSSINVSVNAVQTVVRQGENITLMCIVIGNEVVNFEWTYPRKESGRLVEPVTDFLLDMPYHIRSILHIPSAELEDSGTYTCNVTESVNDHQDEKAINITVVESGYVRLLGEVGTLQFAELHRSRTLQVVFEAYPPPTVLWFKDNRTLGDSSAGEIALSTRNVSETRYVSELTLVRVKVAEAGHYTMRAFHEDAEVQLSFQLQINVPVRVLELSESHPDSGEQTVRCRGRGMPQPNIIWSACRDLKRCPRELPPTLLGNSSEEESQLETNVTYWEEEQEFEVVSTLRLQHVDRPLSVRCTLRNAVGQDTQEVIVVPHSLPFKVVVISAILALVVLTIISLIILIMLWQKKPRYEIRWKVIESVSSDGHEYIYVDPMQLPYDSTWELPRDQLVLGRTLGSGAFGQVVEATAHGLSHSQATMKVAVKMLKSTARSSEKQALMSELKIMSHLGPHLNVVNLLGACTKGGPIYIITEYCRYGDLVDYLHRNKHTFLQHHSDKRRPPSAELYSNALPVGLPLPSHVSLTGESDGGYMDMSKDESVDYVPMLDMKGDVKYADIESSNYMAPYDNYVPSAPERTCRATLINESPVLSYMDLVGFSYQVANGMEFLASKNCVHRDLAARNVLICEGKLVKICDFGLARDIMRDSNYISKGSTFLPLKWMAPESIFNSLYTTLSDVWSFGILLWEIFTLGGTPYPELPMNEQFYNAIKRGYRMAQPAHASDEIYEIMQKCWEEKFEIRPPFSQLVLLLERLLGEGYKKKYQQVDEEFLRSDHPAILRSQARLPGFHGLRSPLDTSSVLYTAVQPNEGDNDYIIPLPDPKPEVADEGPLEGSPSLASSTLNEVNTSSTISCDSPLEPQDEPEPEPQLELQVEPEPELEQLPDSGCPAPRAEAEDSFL
T3 sequence (P16234 24-1089): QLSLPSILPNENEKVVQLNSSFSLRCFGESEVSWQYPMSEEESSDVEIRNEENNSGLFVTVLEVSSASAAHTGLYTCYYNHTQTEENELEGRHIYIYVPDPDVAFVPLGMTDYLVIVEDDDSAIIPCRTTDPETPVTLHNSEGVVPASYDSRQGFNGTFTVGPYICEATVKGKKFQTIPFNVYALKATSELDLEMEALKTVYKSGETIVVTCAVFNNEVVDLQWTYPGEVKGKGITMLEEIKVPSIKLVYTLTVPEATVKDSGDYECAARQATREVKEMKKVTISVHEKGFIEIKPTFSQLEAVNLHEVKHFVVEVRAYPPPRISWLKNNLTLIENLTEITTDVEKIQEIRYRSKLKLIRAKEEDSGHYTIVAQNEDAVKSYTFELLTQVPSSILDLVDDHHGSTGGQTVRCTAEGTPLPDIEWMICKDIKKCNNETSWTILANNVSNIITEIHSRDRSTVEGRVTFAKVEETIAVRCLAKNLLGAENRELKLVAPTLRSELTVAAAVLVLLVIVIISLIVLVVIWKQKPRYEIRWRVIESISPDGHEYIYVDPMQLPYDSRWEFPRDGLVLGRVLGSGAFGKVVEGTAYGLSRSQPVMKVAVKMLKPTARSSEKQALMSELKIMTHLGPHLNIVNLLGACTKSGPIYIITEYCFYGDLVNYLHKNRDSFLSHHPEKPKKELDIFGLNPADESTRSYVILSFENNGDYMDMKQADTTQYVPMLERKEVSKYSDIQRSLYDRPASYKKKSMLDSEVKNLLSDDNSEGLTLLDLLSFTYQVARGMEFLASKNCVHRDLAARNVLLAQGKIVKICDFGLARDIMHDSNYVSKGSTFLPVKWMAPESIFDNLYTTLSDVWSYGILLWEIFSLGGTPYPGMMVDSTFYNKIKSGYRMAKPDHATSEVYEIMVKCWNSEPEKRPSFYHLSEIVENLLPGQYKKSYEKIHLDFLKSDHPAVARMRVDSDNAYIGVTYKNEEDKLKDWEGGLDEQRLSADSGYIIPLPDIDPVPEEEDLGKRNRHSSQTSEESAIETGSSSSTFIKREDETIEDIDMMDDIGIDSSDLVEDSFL

Cc1ccc(NC(=O)c2ccc(CN3CCN(C)CC3)cc2)cc1Nc1nccc(-c2cccnc2)n1 [imatinib]
no effect: effect of inhibiting c-KIT D816V (c-KIT D816V [1])

COc1cc2c(-c3ccc(NC(=O)Cc4ccc(C(F)(F)F)cc4)cc3)ncnc2cc1OCCN1CCN(C)CC1 [Example 3, N-(4-(6-methoxy-7-(2-(4-methylpiperazin-1-yl)ethoxy)quinazolin-4-yl)phenyl)-2-(4-(trifluoromethyl)phenyl)acetamide]
⊚: control percentage (% control), KIT (various kinases; KIT) | control percentage (% control), KIT (A829P) (various kinases; KIT (A829P)) | control percentage (% control), KIT (D816H) (various kinases; KIT (D816H)) | control percentage (% control), KIT (D816V) (various kinases; KIT (D816V)) | control percentage (% control), KIT (L576P) (various kinases; KIT (L576P)) | control percentage (% control), KIT (V559D) (various kinases; KIT (V559D)) | control percentage (% control), KIT (V559D, V654A) (various kinases; KIT (V559D, V654A)) | control percentage (% control), PDGFRA (various kinases; PDGFRA) | control percentage (% control), PDGFRB (various kinases; PDGFRB)
≤ 200 nM: GI50 (Ba/F3-TEL-PDGFRα(WT)) | GI50 (Ba/F3-TEL-PDGFβ(WT)) | GI50 (c-KIT V560G/D816V) | GI50 (c-KIT D814Y) | GI50 (Ba/F3-c-KIT(D816V))
≤ 50 nM: IC50 (human c-KIT(wt)) | IC50 (c-KIT D816V [2]) | IC50 (human PDGFR-α(wt)) | IC50 (human PDGFR-β(wt))
◯ (◯: 10% or more to less than 35%): control percentage (% control), KIT (V559D, T670I) (various kinases; KIT (V559D, T670I)) | control percentage (% control), KIT-autoinhibited (various kinases; KIT-autoinhibited)
